PMC8759724 (Journal of Enzyme Inhibition and Medicinal Chemistry, 2021)

What was measured:
WT PfDHFR [1] = molecular target: WT PfDHFR (Plasmodium falciparum, UniProt P13922, N108S/R59C); assay: Differential scanning fluorimetry; format: binding; conditions: DSF, apo PfDHFR (no NADPH added with the ligand)
WT PfDHFR [2] = molecular target: WT PfDHFR (Plasmodium falciparum, UniProt P13922); assay: PfDHFR activity assay; format: biochemical

Molecule | ΔTm (melting temperature variation) (WT PfDHFR [1]) | IC50 (WT PfDHFR [2]) [µM]
Nc1nc(=O)c2c([nH]1)NCC(CNc1ccc(C(=O)N[C@@H](CCC(=O)O)C(=O)O)cc1)=N2 [DHF, dihydrofolate] | minor melting temperature variations | –
NC(=O)C1=CN([C@@H]2O[C@H](COP(=O)(O)OP(=O)(O)OC[C@H]3O[C@@H](n4cnc5c(N)ncnc54)[C@H](OP(=O)(O)O)[C@@H]3O)[C@@H](O)[C@H]2O)C=CC1 [NADPH] | +4 °C | –
NC(=O)Nc1cccc(C(F)(F)F)c1 [fragment 148, [3-(trifluoromethyl)phenyl]urea] | – | 464
tetrahydrofolate [THF] | minor melting temperature variations | –
